Results published in paper PMC7604503, “Cyclic peptides can engage a single binding pocket through highly divergent modes” (Proceedings of the National Academy of Sciences of the …, 2020).
Where a SMILES comes first, the peptide text is derived from it. Bridges are numbered along the chain shown (N, C = ends).

What was measured:
BRD2-BD2 = biological target: T1, BRD2-BD2 (Homo sapiens, UniProt P25440); test: 15N-HSQC NMR titration, CSPs fitted to 1:1 binding model; conditions: 15N-HSQC titration, simple 1:1 binding model; read-out: binding affinity for BRD2-BD2 from CSP data
T1 construct: human BRD2 (BD1: 65-194; BD2: 347-455); Avi tag (biotinylated); made in house; host or cells: E. coli BL21(DE3)
T1 sequence (P25440 347-455): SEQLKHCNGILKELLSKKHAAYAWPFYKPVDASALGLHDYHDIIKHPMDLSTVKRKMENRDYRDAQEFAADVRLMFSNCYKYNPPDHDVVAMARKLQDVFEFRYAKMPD
Source text: (G) Overlaid section of 15N-HSQC spectra of BRD2-BD2 alone (red) or in the presence of one (yellow), two (blue), or three (green) molar equivalents of Signals that undergo the greatest CSPs in the titration are labelled in the protein alone spectrum. Binding curves were derived by tracking the combined 15N/1H chemical shift perturbations of the signals undergoing the greatest CSPs. The data were fitted to a simple 1:1 Langmuir binding isotherm using Graphpad.

[1] = tested on: other BD families (non-BET BDs); test: BROMOscan competition binding assay, stated for the non-BET bromodomains together; parameters: species or system human; conditions: peptide concentration 1 μM
Source text: Again, remarkable specificity was observed.

Row | SMILES | Kd (BRD2-BD2) [µM] | binding to other (non-BET) BD families (in words) [1]
1 | CC[C@H](C)[C@@H]1NC(=O)[C@H]([C@@H](C)O)NC(=O)[C@H](CCCCN)NC(=O)[C@H](Cc2c[nH]c3ccccc23)NC(=O)CSC[C@@H](C(N)=O)NC(=O)[C@H](CCC(N)=O)NC(=O)[C@H](CCCCNC(C)=O)NC(=O)[C@H]([C@@H](C)O)NC(=O)[C@H](CCCNC(=N)N)NC(=O)[C@H](Cc2c[nH]c3ccccc23)NC(=O)[C@H]([C@@H](C)O)NC(=O)[C@H](CCCCNC(C)=O)NC(=O)CNC(=O)[C@H](CCCCNC(C)=O)NC1=O [3.1B] ({CH2CO}-WKTIK(Ac)GK(Ac)TWRTK(Ac)QC-NH2; thioether N-14) | ~300 | almost no binding
2 | CC[C@H](C)[C@@H]1NC(=O)[C@H](Cc2c[nH]c3ccccc23)NC(=O)[C@H](Cc2c[nH]c3ccccc23)NC(=O)CSC[C@@H](C(N)=O)NC(=O)CNC(=O)[C@H](CCCCNC(C)=O)NC(=O)[C@H](CCCCN)NC(=O)[C@H](C(C)C)NC(=O)[C@H](CCCCNC(C)=O)NC(=O)[C@@H]2CCCN2C(=O)[C@H]([C@@H](C)CC)NC1=O [3.1C] ({CH2CO}-WWIIPK(Ac)VKK(Ac)GC-NH2; thioether N-11) | – | almost no binding
